Results as given in patent publication EP0194794A2, “Saccharide digestion inhibiting composition” (Takeda Chemical Industries, Ltd., priority 1985, dated 1986).
Marks after values point to notes of the source that are not given here.

Tests used:
[1] = Property of feces in rats fed test ration, 2 or more bacteria (Reference Example 2); format: in vivo, Jcl:SD rats; settings: 36 to 48 hours
Procedure: Using 2 or more different bacteria, test rations were prepared by the same procedure as Reference Example 1. However, the amount of potato starch was reduced to adjust for the volume increase due to the cells to provide a composition containing cells of AO-128 and the composition was mixed with feed. The resulting ration was given to 7-week-old Jcl:SD rats (5 animals per group) and the property of feces after 36 to 48 hours was observed. Control rats received a mixture of 10 mg of AO-128 and 100 g of powder feed.

[2] = Influence on dietary hyperglycemia and hyperinsulinemia (Reference Example 3); format: in vivo, male Jcl:SD rats; settings: mean ± SD, n=6
Procedure: The rations prepared in the same manner as Reference Example 1 were given to 8-week-old male Jcl:SD rats (6 individuals per group) which had not been fed for 24 hours to investigate how the administration of lactic acid producing bacteria would influence the inhibitory effect of AO-128 on the hyperglycemia and hyperinsuleinemia following a diet intake.
Blood samples were collected from the tail vein immediately before feeding and 30, 60 and 120 minutes after feeding and the plasma glucose and insulin levels were determined.

[3] = 28-day feeding of rats with Zucker obesity (Reference Example 4); format: in vivo, male rats with Zucker obesity; settings: ration fed for 28 days
Procedure: In the analysis for body fat, the liver, the adipose tissue of the epididymis, the digestive tract and its contents were removed and the remainder was used as a sample. The rations containing the bacterial cells were prepared every other day and fed.

[4] = Acute toxicity study; format: in vivo, rats; settings: oral administration, 10 g/kg body weight
Excerpt: When this was mixed with 10^11 cells of any of the 3 different lactic acid producing bacteria used in the present invention and the mixture was orally administered at the same time as AO-128 (10 g/kg body weight), no influence was observed.

[5] = Property of feces in rats fed test ration, single organism (Reference Example 1); format: in vivo, male Jcl:SD rats; settings: 36 to 48 hours
Procedure: One gram of the mixture prepared in Example 1 and one gram of cells of lactic acid producing bacteria of a kind different from the bacteria used in Example 1 were mixed with 99 g of commercial powder feed (CE-2) to give a test ration. This ration was given to male Jcl:SD rats aged 7 weeks (6 animals per group) and the property of feces excreted after 36 to 48 hours was examined. Control animals received a mixture of 10 mg of AO-128 and 100 g of 'powder feed.

OCC(CO)N[C@H]1C[C@](O)(CO)[C@@H](O)[C@H](O)[C@H]1O [AO-128, N-(1,3-Dihydroxy-2-propyl)valiolamine]
Property of feces ± ([1]; number of rats (5 per group) with fecal masses, diffusion of water on filter paper): 2 | Property of feces - ([1]; number of rats (5 per group) with fecal masses, no diffusion of water on filter paper): 0 | Property of feces + ([1]; number of rats (5 per group) with feces unformed (watery stool)): 3 | Plasma glucose level 30 min. ([2]; 30 minutes after feeding): 141± 8^a mg/dl | Plasma glucose level 60 min. ([2]; 60 minutes after feeding): 154±11^a mg/dl | Plasma glucose level 120 min. ([2]; 120 minutes after feeding): 152±11^a mg/dl | Plasma glucose level 0 min. ([2]; immediately before feeding, rats not fed for 24 hours): 101 ± 10 mg/dL | diarrhea ([3]; animals with diarrhea / animals in group): 6/6 | body fat ([3]; carcass without liver, epididymal adipose tissue, digestive tract, n=6): 19.8±5.4^b % | body weight gain ([3]; mean ± SD, n=6): 132±28^a g/28day | food consumption ([3]; mean ± SD, n=6): 602±56^a g/28day | food conversion ([3]; mean ± SD, n=6): 21.9±3.6^b % | death in acute toxicity study [4]: caused no death | Property of feces ± ([5]; number of rats (6 per group) with fecal masses, a diffusion of water noted on filter paper): 0 | Property of feces - ([5]; number of rats (6 per group) with fecal masses, no diffusion of water on filter paper): 0 | Property of feces + ([5]; number of rats (6 per group) with feces unformed (watery stool)): 6
